From ChEMBL document CHEMBL4616582, “Green recipes to quinoline: A review” (Eur J Med Chem, 2019)
Converted amounts (≈) assume the structure as drawn.

Tested on: HepG2
Assay: Cytotoxicity against human HepG2 cells assessed as reduction in cell viability by MTT assay
Assay type: functional, cell-based
Conditions: not given

Row | Structure (SMILES) | IC50
1 | CC(=O)c1ccc(F)cc1 | 0.984 µM
2 | CC(=O)c1ccc(Br)cc1 | 0.984 µM
3 | O=c1c2ccc(Br)cc2n(-c2ccccc2)c2ss/c(=N\c3ccccc3)c12 | 0.984 µM
4 | O=c1c2c(Cl)ccc(Cl)c2n(-c2ccccc2)c2ss/c(=N\c3ccccc3)c12 | 0.984 µM
5 | CC(=O)c1ccccc1Cl | 0.984 µM
6 | O=c1c2ccc(Cl)cc2n(-c2ccccc2)c2ss/c(=N\c3ccccc3)c12 | 0.984 µM
7 | CC(=O)c1cc(Cl)ccc1Cl | 0.984 µM
8 | O=c1c2cc(Cl)c(Cl)cc2n(-c2ccccc2)c2ss/c(=N\c3ccccc3)c12 | 0.984 µM
9 | O=c1c2c(Cl)cccc2n(-c2ccccc2)c2ss/c(=N\c3ccccc3)c12 | 0.984 µM
10 | CC(=O)c1ccc(Cl)c(Cl)c1 | 0.984 µM
11 | CC(=O)c1cc(C)ccc1Br | 0.984 µM
12 | Cc1ccc(Br)c2c(=O)c3/c(=N/c4ccccc4)ssc3n(-c3ccccc3)c12 | 0.984 µM
13 | O=c1c2ccc(F)cc2n(-c2ccccc2)c2ss/c(=N\c3ccccc3)c12 | 0.984 µM
14 | O=c1c2c(Cl)cc(Cl)c(F)c2n(-c2ccccc2)c2ss/c(=N\c3ccccc3)c12 | 0.984 µM
15 | CC(=O)c1cc(F)c(Cl)cc1Cl | 0.984 µM
16 | CC(=O)c1ccc(Cl)cc1 | 0.984 µM
17 | CC(=O)c1ccccc1 [ACETOPHENONE] | 0.984 µM
18 | CC(C)=CCC[C@]1(C)C=Cc2c(O)c3c(c(CC=C(C)C)c2O1)O[C@]12C(=C[C@@H]4C[C@H]1C(C)(C)O[C@@]2(C/C=C(/C)C(=O)O)C4=O)C3=O [GAMBOGIC ACID] | 1.55 µM
19 | S=C=Nc1ccccc1 [PHENYLISOTHIOCYANATE] | 0.984 µM

Tested on: Bacillus subtilis
Assay: Antibacterial activity against Bacillus subtilis MTCC 121 after 24 hrs by agar well diffusion method
Assay type: functional
Conditions: MTCC 121, 24 h

Row | Structure (SMILES) | MIC
20 | CC1(C)CC(=O)C2=C(C1)N(c1ccc(Br)cc1)C(=O)C21C2=C(Nc3ccccc31)c1ccccc1C2=O (centres undefined) | 8 µg/mL (≈ 14.5 µM)
21 | COc1ccc(N2C(=O)C3(C4=C(Nc5ccc(Br)cc53)c3ccccc3C4=O)C3=C2CCCC3=O)cc1 (centres undefined) | 8 µg/mL (≈ 14.5 µM)
22 | CC1(C)CC(=O)C2=C(C1)N(c1ccccc1)C(=O)C21C2=C(Nc3ccc([N+](=O)[O-])cc31)c1ccccc1C2=O (centres undefined) | 8 µg/mL (≈ 15.5 µM)
23 | CC1(C)CC(=O)C2=C(C1)N(c1ccc(Cl)cc1)C(=O)C21C2=C(Nc3ccccc31)c1ccccc1C2=O (centres undefined) | 8 µg/mL (≈ 15.8 µM)
24 | O=C1CCCC2=C1C1(C(=O)N2C2CCCCC2)C2=C(Nc3ccc(Br)cc31)c1ccccc1C2=O (centres undefined) | 8 µg/mL (≈ 15.1 µM)
25 | COc1ccc(N2C(=O)C3(C4=C(Nc5ccccc53)c3ccccc3C4=O)C3=C2CC(C)(C)CC3=O)cc1 (centres undefined) | 8 µg/mL (≈ 15.9 µM)
26 | O=C1CCCC2=C1C1(C(=O)N2c2ccccc2)C2=C(Nc3ccc(Br)cc31)c1ccccc1C2=O (centres undefined) | 8 µg/mL (≈ 15.3 µM)
27 | Cc1ccc(N2C(=O)C3(C4=C(Nc5ccc([N+](=O)[O-])cc53)c3ccccc3C4=O)C3=C2CCCC3=O)cc1 (centres undefined) | 8 µg/mL (≈ 15.9 µM)
28 | O=C1CCCC2=C1C1(C(=O)N2c2ccc(Br)cc2)C2=C(Nc3ccc(Br)cc31)c1ccccc1C2=O (centres undefined) | 8 µg/mL (≈ 13.3 µM)
29 | O=C1CCCC2=C1C1(C(=O)N2c2ccc(Cl)cc2)C2=C(Nc3ccc([N+](=O)[O-])cc31)c1ccccc1C2=O (centres undefined) | 8 µg/mL (≈ 15.3 µM)
30 | CC1(C)CC(=O)C2=C(C1)N(c1ccccc1)C(=O)C21C2=C(Nc3ccc(Br)cc31)c1ccccc1C2=O (centres undefined) | 8 µg/mL (≈ 14.5 µM)
31 | CC1(C)CC(=O)C2=C(C1)N(c1ccccc1)C(=O)C21C2=C(Nc3ccccc31)c1ccccc1C2=O (centres undefined) | 8 µg/mL (≈ 16.9 µM)
32 | CC1(C)CC(=O)C2=C(C1)N(c1ccc(Cl)cc1)C(=O)C21C2=C(Nc3ccc([N+](=O)[O-])cc31)c1ccccc1C2=O (centres undefined) | 8 µg/mL (≈ 14.5 µM)
33 | O=C1CCCC2=C1C1(C(=O)N2c2ccc(Br)cc2)C2=C(Nc3ccc([N+](=O)[O-])cc31)c1ccccc1C2=O (centres undefined) | 8 µg/mL (≈ 14.1 µM)
34 | O=C1CCCC2=C1C1(C(=O)N2c2ccccc2)C2=C(Nc3ccccc31)c1ccccc1C2=O (centres undefined) | 8 µg/mL (≈ 18 µM)
35 | Cc1ccc(N2C(=O)C3(C4=C(Nc5ccc(Br)cc53)c3ccccc3C4=O)C3=C2CCCC3=O)cc1 (centres undefined) | 8 µg/mL (≈ 14.9 µM)
36 | O=C1CCCC2=C1C1(C(=O)N2c2ccccc2)C2=C(Nc3ccc([N+](=O)[O-])cc31)c1ccccc1C2=O (centres undefined) | 8 µg/mL (≈ 16.3 µM)
37 | Cc1ccc(N2C(=O)C3(C4=C(Nc5ccccc53)c3ccccc3C4=O)C3=C2CC(C)(C)CC3=O)cc1 (centres undefined) | 8 µg/mL (≈ 16.4 µM)
38 | CC1(C)CC(=O)C2=C(C1)N(c1ccco1)C(=O)C21C2=C(Nc3ccc([N+](=O)[O-])cc31)c1ccccc1C2=O (centres undefined) | 8 µg/mL (≈ 15.8 µM)
39 | CCCCN1C(=O)C2(C3=C(Nc4ccc(Br)cc42)c2ccccc2C3=O)C2=C1CC(C)(C)CC2=O (centres undefined) | 8 µg/mL (≈ 15.1 µM)
40 | CC1(C)CC(=O)C2=C(C1)N(c1ccco1)C(=O)C21C2=C(Nc3ccc(Br)cc31)c1ccccc1C2=O (centres undefined) | 8 µg/mL (≈ 14.8 µM)
41 | O=C1CCCC2=C1C1(C(=O)N2c2ccc(Cl)cc2)C2=C(Nc3ccccc31)c1ccccc1C2=O (centres undefined) | 8 µg/mL (≈ 16.7 µM)
42 | O=C(O)c1cn(C2CC2)c2cc(N3CCNCC3)c(F)cc2c1=O [CIPROFLOXACIN] | 6.25 µg/mL (≈ 18.9 µM)

Tested on: Plasmodium falciparum
Assay: Antimalarial activity against chloroquine and quinine sensitive Plasmodium falciparum
Assay type: functional, organism-based
Conditions: not given

Row | Structure (SMILES) | IC50
43 | COc1ccc(NN2C(N)=C(C#N)C(c3c(C)nn(-c4ccccc4)c3Oc3ccccc3F)C3=C2CC(C)(C)CC3=O)cc1 (centres undefined) | 0.042 to 0.09 µg/mL (≈ 0.0695 to 0.149 µM)
44 | Cc1nn(-c2ccccc2)c(Oc2ccccc2F)c1C1C(C#N)=C(N)N(Nc2ccc(F)cc2)C2=C1C(=O)CC(C)(C)C2 (centres undefined) | 0.042 to 0.09 µg/mL (≈ 0.0709 to 0.152 µM)
45 | Cc1nn(-c2ccccc2)c(Oc2ccc(F)cc2)c1C1C(C#N)=C(N)N(Nc2ccccc2)C2=C1C(=O)CC(C)(C)C2 (centres undefined) | 0.042 to 0.09 µg/mL (≈ 0.0731 to 0.157 µM)
46 | Cc1nn(-c2ccccc2)c(Oc2cccc(F)c2)c1C1C(C#N)=C(N)N(Nc2ccccc2)C2=C1C(=O)CC(C)(C)C2 (centres undefined) | 0.042 to 0.09 µg/mL (≈ 0.0731 to 0.157 µM)
47 | Cc1nn(-c2ccccc2)c(Oc2ccccc2F)c1C1C(C#N)=C(N)N(Nc2ccc(Cl)cc2)C2=C1C(=O)CC(C)(C)C2 (centres undefined) | 0.042 to 0.09 µg/mL (≈ 0.069 to 0.148 µM)
48 | Cc1nn(-c2ccccc2)c(Oc2ccccc2F)c1C1C(C#N)=C(N)N(Nc2ccccc2)C2=C1C(=O)CC(C)(C)C2 (centres undefined) | 0.042 to 0.09 µg/mL (≈ 0.0731 to 0.157 µM)
49 | Cc1nn(-c2ccccc2)c(Oc2cccc(C(F)(F)F)c2)c1C1C(C#N)=C(N)N(Nc2ccccc2)C2=C1C(=O)CC(C)(C)C2 (centres undefined) | 0.042 to 0.09 µg/mL (≈ 0.0672 to 0.144 µM)
50 | Cc1nn(-c2ccccc2)c(Oc2ccccc2F)c1C1C(C#N)=C(N)N(Nc2ccc(Br)cc2)C2=C1C(=O)CC(C)(C)C2 (centres undefined) | 0.042 to 0.09 µg/mL (≈ 0.0643 to 0.138 µM)

Tested on: B16-F10
Assay: Cytotoxicity against mouse B16F10 cells assessed as reduction in cell viability
Assay type: functional, cell-based
Conditions: not given

Row | Structure (SMILES) | IC50
51 | O=Cc1c(Cl)cccc1Cl | 70.7 µM
52 | O=Cc1ccc(Cl)cc1 | 70.7 µM
53 | O=Cc1ccc(Cl)cc1Cl | 70.7 µM
54 | O=Cc1cccc(Br)c1 | 70.7 µM
55 | O=Cc1ccc([N+](=O)[O-])cc1 | 70.7 µM
56 | Cc1ccc(C=O)cc1 | 70.7 µM
57 | O=c1cc(O)c2cc(Br)ccc2o1 | 70.7 µM
58 | O=Cc1ccc(F)cc1 | 70.7 µM
59 | O=Cc1ccccc1Br | 70.7 µM
60 | O=Cc1cccc2ccccc12 | 70.7 µM
61 | O=Cc1ccc(Br)cc1 | 70.7 µM
62 | O=c1cc(O)c2cc(Cl)ccc2o1 | 70.7 µM
63 | O=Cc1ccc(C(F)(F)F)cc1 | 70.7 µM
64 | O=c1oc2ccccc2c2nc3c(ccc4cc[nH]c43)c(-c3c(Cl)cccc3Cl)c12 | 70.7 µM
65 | Cc1ccc(-c2c3ccc4cc[nH]c4c3nc3c2c(=O)oc2ccccc23)cc1 | 70.7 µM
66 | O=c1oc2ccccc2c2nc3c(ccc4cc[nH]c43)c(-c3cccc4ccccc34)c12 | 70.7 µM
67 | O=c1oc2ccccc2c2nc3c(ccc4cc[nH]c43)c(-c3ccc(Cl)cc3Cl)c12 | 70.7 µM
68 | O=c1oc2ccccc2c2nc3c(ccc4cc[nH]c43)c(-c3ccc(Br)cc3)c12 | 70.7 µM
69 | O=c1oc2ccccc2c2nc3c(ccc4cc[nH]c43)c(-c3ccccc3Br)c12 | 70.7 µM
70 | COc1ccc(-c2c3ccc4cc[nH]c4c3nc3c2c(=O)oc2ccccc23)cc1 | 70.7 µM

Row | Structure (SMILES) | IC50
71 | O=c1oc2ccccc2c2nc3c(ccc4cc[nH]c43)c(-c3ccc([N+](=O)[O-])cc3)c12 | 70.7 µM
72 | O=c1oc2ccccc2c2nc3c(ccc4cc[nH]c43)c(-c3ccc(F)cc3)c12 | 70.7 µM
73 | O=c1oc2ccccc2c2nc3c(ccc4cc[nH]c43)c(-c3ccc(C(F)(F)F)cc3)c12 | 70.7 µM
74 | O=c1oc2ccccc2c2nc3c(ccc4cc[nH]c43)c(-c3ccccc3)c12 | 70.7 µM
75 | O=c1oc2ccccc2c2nc3c(ccc4cc[nH]c43)c(-c3ccccn3)c12 | 70.7 µM
76 | O=c1oc2ccccc2c2nc3c(ccc4cc[nH]c43)c(-c3ccc(O)cc3)c12 | 70.7 µM
77 | O=Cc1cccc(Cl)c1Cl | 70.7 µM
78 | O=c1oc2ccccc2c2nc3c(ccc4cc[nH]c43)c(-c3cccnc3Cl)c12 | 70.7 µM
79 | O=c1oc2ccccc2c2nc3c(ccc4cc[nH]c43)c(-c3ccc(Cl)cc3)c12 | 70.7 µM
80 | O=c1cc(O)c2cc(F)ccc2o1 | 70.7 µM
81 | O=c1oc2ccccc2c2nc3c(ccc4cc[nH]c43)c(-c3cccc(Br)c3)c12 | 70.7 µM
82 | O=c1oc2ccccc2c2nc3c(ccc4cc[nH]c43)c(-c3cccc(Cl)c3Cl)c12 | 70.7 µM
83 | Nc1cccc2cc[nH]c12 | 70.7 µM
84 | O=Cc1cccnc1Cl [2-CHLORONICOTINALDEHYDE] | 70.7 µM
85 | O=Cc1ccccn1 [2-PYRIDINECARBOXALDEHYDE] | 70.7 µM
86 | O=Cc1ccc(O)cc1 [4-HYDROXYBENZALDEHYDE] | 70.7 µM
87 | O=c1cc(O)c2ccccc2o1 [4-HYDROXYCOUMARINS] | 70.7 µM
88 | COc1ccc(C=O)cc1 [ANISALDEHYDE] | 70.7 µM
89 | O=Cc1ccccc1 [BENZALDEHYDE] | 70.7 µM
